Results published in US20240190838A1, “LZK-TARGETING DEGRADERS AND METHODS OF USE” (The U.S.A., as represented by the Secretary, Department of …, priority 2020, published 2024).
≈ marks a conversion by molar mass, not a printed value. Like-named read-outs stand apart in the source and are kept apart here. Where a SMILES comes first, the peptide text is derived from it. The star is where a group is joined. Cbz = O=C(OCc1ccccc1)*

Columns and labels:
c-MYC = c-MYC levels in CAL33 and BICR56 cells depleted of LZK; type: cell-based; conditions: 10 μM for six hours; LZK depleted 48 hours
Experimental: CAL33 and BICR56 inducible knockdown cells were generated by SIRION Biotech. MSK921 was generated in-house using lentiviral particles provided by SIRION (generated by transfection of 293TN cells with expression vectors and lentiviral packaging plasmids). Transduction occurred at MOI 5 with 8 μg/mL polybrene. After 24 hours, medium was replaced with fresh medium containing puromycin (Invitrogen) to select for cells that had been effectively transduced. shRNA sequences were […] (sh1; SEQ ID NO: 19) and […] (sh2; SEQ ID NO: 20). The lentiviral expression plasmid was pCLVi(3G)-MCS-Puro, which expresses a doxycycline-responsive transactivator and the shRNA from the same vector. Expression of the transactivator is constitutive, while shRNA expression depends on a doxycycline-inducible promoter. […]
Generally, cells were plated in six-well or 35-mm plates for 24 hours, after which doxycycline was added or treatment with specific inhibitor was administered using 50 FBS media for 48 hours. […] Protein concentrations were determined from the cell lysate by using 660 nm Protein Assay Reagent (Pierce). […] The membranes were incubated with the specific antibodies overnight in […] at 4° C. followed by a 1 hour incubation with the appropriate horseradish peroxidase-conjugated secondary antibodies and signal was detected by chemiluminescence (Thermo Fisher).

LZK [1] = biological target: T1, LZK (Homo sapiens, UniProt O43283); assay: LZK inhibition in cells monitored by downstream JNK phosphorylation (dox-induced LZK); type: cell-based; set-up: V5 (named only in the vector); expressed in transfected cells; host or cells: CAL33 HNSCC cells, lentiviral T-REx system, induced with doxycycline
T1 sequence (O43283 1-966): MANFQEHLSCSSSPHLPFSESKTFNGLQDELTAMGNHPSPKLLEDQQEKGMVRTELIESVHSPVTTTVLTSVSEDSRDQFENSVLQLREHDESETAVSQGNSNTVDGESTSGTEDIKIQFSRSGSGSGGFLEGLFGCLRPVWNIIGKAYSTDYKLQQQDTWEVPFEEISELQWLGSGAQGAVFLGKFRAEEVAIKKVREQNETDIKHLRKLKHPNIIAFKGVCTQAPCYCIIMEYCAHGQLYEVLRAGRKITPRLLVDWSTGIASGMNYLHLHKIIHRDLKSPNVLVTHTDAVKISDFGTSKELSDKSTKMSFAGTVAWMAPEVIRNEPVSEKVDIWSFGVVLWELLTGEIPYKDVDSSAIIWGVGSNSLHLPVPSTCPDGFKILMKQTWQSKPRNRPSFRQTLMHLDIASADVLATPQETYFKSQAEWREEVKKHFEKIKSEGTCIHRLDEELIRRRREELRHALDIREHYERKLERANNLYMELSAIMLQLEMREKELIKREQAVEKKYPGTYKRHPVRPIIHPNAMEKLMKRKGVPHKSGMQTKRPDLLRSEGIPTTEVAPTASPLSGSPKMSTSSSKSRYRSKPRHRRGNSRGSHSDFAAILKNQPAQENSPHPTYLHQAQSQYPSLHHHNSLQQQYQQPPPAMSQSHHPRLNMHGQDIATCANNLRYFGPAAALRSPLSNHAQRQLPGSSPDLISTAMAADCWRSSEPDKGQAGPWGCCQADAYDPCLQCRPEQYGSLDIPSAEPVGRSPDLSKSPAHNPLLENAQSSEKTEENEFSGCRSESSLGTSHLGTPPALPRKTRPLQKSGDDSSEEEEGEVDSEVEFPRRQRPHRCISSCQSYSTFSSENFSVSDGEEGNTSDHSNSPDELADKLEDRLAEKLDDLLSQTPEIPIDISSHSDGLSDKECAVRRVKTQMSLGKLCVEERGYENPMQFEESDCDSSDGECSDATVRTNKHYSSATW
Text: (§1) The ViraPower HiPerform T-REx Gateway Expression System (Invitrogen) was used to generate cells with tetracycline-inducible expression of LZK. In brief, wild-type (WT) or drug-resistant mutant (Q240S) LZK (cloned into pLenti6.3/TO/V5-DEST vector) and pLenti3.3/TR (for tetracycline repressor expression) were transfected into 293FT cells using Lipofectamine 2000 to generate lentiviral stock. Cell lines were generated by antibiotic selection (blasticidin [Gibco] and geneticin [Gibco]). Doxycycline (Sigma-Aldrich) was used at 1 μg/mL to induce LZK expression.
(§2) Generally, cells were plated in six-well or 35-mm plates for 24 hours, after which doxycycline was added or treatment with specific inhibitor was administered using […] for 48 hours. After appropriate treatment time, cells were washed with ice-cold phosphate-buffered saline without Ca and Mg (Quality Biological) and then lysed on ice with RIPA buffer (50 mM NaCl, 1.0% o IGEPAL® CA-630, 0.5% o sodium deoxycholate, 0.10% SDS, 50 mM Tris, pH 8.0) (Sigma-Aldrich) supplemented with protease inhibitor tablet (Sigma-Aldrich) and phosphatase inhibitor cocktails 2 and 3 (Sigma-Aldrich) followed by centrifugation at 15,000 rpm for 10 minutes at 4° C. Protein concentrations were determined from the cell lysate by using 660 nm Protein Assay Reagent (Pierce). Cell extracts were denatured, subjected to SDS-PAGE, transferred to PVDF membranes (Bio-Rad) and blocked for 2 hours using 5 bovine serum albumin (BSA) in phosphate-buffered saline and 0.10 Tween® 20 (PBS-T). The membranes were incubated with the specific antibodies overnight in […] at 4° C. followed by a 1 hour incubation with the appropriate horseradish peroxidase-conjugated secondary antibodies and signal was detected by chemiluminescence (Thermo Fisher).
A PathScan® Phospho-SAPK/JNK (Thr183/Tyr185) Sandwich ELISA Assay (Cell Signaling Technology) was used for ELISA assays following the manufacturer's protocol. In general, 500,000 cells were plated and treated with doxycycline the following day where appropriate and incubated at 37° C. for 48 hours. Cells were treated with the drug compound or control in 5% FBS media for 1 hour. After appropriate treatment time, cells were lysed on ice with 1x Cell Lysis Buffer (Cell Signaling Technology) supplemented with phosphatase and protease inhibitors (Sigma). Each diluted cell lysate was added to Phospho-SAPK/JNK (Thr183/Tyr185)Rabbit mAb Coated microwells in triplicate and incubated overnight at 4° C. Samples were treated with the following antibodies and incubated at 37° C. for 1 hour and 30 minutes, respectively: Detection Antibody and HRP-Linked secondary antibody. Samples were washed between treatments using 1× Wash Buffer according to the manufacturer's protocol. TMB substrate was added to each well and incubated at 37° C. for 10 minutes. Following this, STOPsolution was added to each well and absorbance was measured at 450 nm using iMark™ Microplate Absorbance Reader (Bio-Rad). Graphs display relative phospho-JNK levels.

LZK [2] = biological target: T1, LZK; assay: LZK degradation (doxycycline-induced LZK expression, immunoblot) in CAL33 cells; type: cell-based; set-up: V5 (named only in the vector); expressed in transfected cells; host or cells: CAL33 HNSCC cells, lentiviral T-REx system, induced with doxycycline; conditions: for LZK degradation / dox-induced LZK expression: CAL33, doxycycline 48 hours, LZK PROTAC 24 hours, 0-10 μM; for dox-induced LZK expression at high concentrations: 24 hours
Text: as §1, §2

[3] = Parallel artificial membrane permeability assay (PAMPA); type: in vitro ADME
[4] = Rat liver microsomal (RLM) stability assay; type: in vitro ADME; conditions: rat liver microsomes; read-out: RLM Stability (t1/2)
Kinetic solubility assay = type: physicochemical; conditions: kinetic from dmso stock

In the case of CC(C)C[C@@H](C=O)NC(=O)[C@H](CC(C)C)NC(=O)[C@H](CC(C)C)NC(=O)OCc1ccccc1 [MG132] (Cbz-Leu-Leu-Leu-aldehyde), the “c-MYC levels in LZK-depleted cells” value (c-MYC) is reported as “rescued decreases in the c-MYC levels”.
With O=C(CCCCCCC(=O)N1CCC(c2cc(Nc3cc(C(F)(F)F)ccn3)nc(N3CCC(F)(F)C3)c2)CC1)NCCCCNC(=O)CNc1cccc2c1C(=O)N(C1CCC(=O)NC1=O)C2=O (stereo not shown) [Compound 5] the “JNK signaling inhibition by targeted degraders” value (LZK [1]; CAL33 cells induced with doxycycline, 0-10 μM) was “inhibited LZK”, the “LZK degradation / dox-induced LZK expression” value (LZK [2]) was “ineffective at degrading LZK” and the “dox-induced LZK expression at high concentrations” value (LZK [2]) was “slightly decreased dox-induced LZK expression”.
With FC1(F)CCN(c2cc(C3CCNCC3)cc(Nc3cc(C(F)(F)F)ccn3)n2)C1 [LZK inhibitor 1] the “LZK inhibition in cells, measured by inhibition of downstream JNK pathway activation” value (LZK [1]; dox-inducible LZK in CAL33 cells) was “poor LZK inhibitor in cells”.
Work on Cc1ncsc1-c1ccc([C@H](C)NC(=O)[C@@H]2C[C@@H](O)CN2C(=O)[C@@H](NC(=O)c2cncc(C(=O)N3CCC(c4cc(Nc5cc(C#N)ccn5)nc(N5CCC(F)(F)C5)c4)CC3)c2)C(C)(C)C)cc1 [Compound 7] yielded a Papp ([3]; pH 7.4) of less than 10 nm/s, a half-life [4] greater than 30 min and a solubility (Kinetic solubility assay) of 0.026 mg/mL (≈ 27.1 µM).
In the case of Cc1ncsc1-c1ccc([C@H](C)NC(=O)[C@@H]2C[C@@H](O)CN2C(=O)[C@@H](NC(=O)CCCCCCC(=O)N2CCC(c3cc(Nc4cc(C(F)(F)F)ccn4)nc(N4CCC(F)(F)C4)c3)CC2)C(C)(C)C)cc1 [Compound 4], the “LZK degradation / dox-induced LZK expression” value (LZK [2]) is reported as “ineffective at degrading LZK” and the “dox-induced LZK expression at high concentrations” value (LZK [2]) is reported as “slightly decreased dox-induced LZK expression”.
For C[C@@H](C(=O)N[C@H](C(=O)N1C[C@@H](NC(=O)CCCCCCC(=O)N2CCC(c3cc(Nc4cc(C#N)ccn4)nc(N4CCC(F)(F)C4)c3)CC2)C[C@H]1C(=O)N[C@@H]1CCCc2ccccc21)C1CCCCC1)N(C)C(=O)OC(C)(C)C [Compound 30], the “Ratio of mean permeability (×10^4 cm/s) related to low permeability control (atenolol)” value ([3]; Table 7) was 0.05, the Papp ([3]; Table 7, read-out: Mean permeability) was 0.001 nm/s and the “LZK degradation / dox-induced LZK expression” value (LZK [2]) was “did not degrade LZK”.
